Reference: ChEMBL document CHEMBL1938377, “Synthesis and evaluation of 17α-E-20-(heteroaryl)norpregn-1,3,5(10),20 tetraene-3,17β-diols [17α-(heteroaryl)vinyl estradiols] as ligands for the estrogen receptor-α ligand binding domain (ERα-LBD)” (Bioorg Med Chem Lett, 2012)
Active and inactive are the calls of the source. No cut-off for these calls is given here.

Assays:
[1] = Agonist activity at estrogen receptor in human Ishikawa cells assessed as increase of alkaline phosphatase level after 3 days using P-nitrophenyl phosphate as substrate relative to estradiol; format: functional
[2] = biological target: T1, Estrogen receptor (Homo sapiens) (UniProt P03372); assay: Displacement of [3H]-estradiol from human […] LBD expressed in Escherichia coli at 1 uM to 1 pM relative to estradiol
T1 sequence (whole entry): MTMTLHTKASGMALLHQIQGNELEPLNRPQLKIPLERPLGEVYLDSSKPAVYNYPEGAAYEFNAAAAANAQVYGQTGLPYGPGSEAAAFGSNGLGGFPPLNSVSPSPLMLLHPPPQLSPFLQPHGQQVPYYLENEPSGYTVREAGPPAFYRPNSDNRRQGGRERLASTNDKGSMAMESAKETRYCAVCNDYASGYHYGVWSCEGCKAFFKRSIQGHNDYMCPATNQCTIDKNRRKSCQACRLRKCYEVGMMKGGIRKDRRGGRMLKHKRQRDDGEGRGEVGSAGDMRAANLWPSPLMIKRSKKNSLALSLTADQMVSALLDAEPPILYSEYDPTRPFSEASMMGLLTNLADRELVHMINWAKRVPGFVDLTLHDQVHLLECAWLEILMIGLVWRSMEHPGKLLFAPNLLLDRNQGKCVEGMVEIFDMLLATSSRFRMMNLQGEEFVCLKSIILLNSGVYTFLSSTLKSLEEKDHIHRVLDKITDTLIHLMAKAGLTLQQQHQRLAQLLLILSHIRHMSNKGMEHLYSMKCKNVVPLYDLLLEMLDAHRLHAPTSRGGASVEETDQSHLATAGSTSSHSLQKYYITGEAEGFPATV

Ishikawa = assay: Antagonist activity at estrogen receptor in human Ishikawa cells assessed as inhibition of estradiol-induced alkaline phosphatase level after 3 days using P-nitrophenyl phosphate as substrate; format: functional, cell-based
[3] = Agonist activity at estrogen receptor in human Ishikawa cells assessed as increase of alkaline phosphatase level after 3 days using P-nitrophenyl phosphate as substrate; format: functional, cell-based; details: 72 h

| RBA [2] | Structure (SMILES) | RSA [1] [%] | inhibition (Ishikawa) | EC50 [3] [nM] |
| --- | --- | --- | --- | --- |
| 4 | C[C@]12CC[C@@H]3c4ccc(O)cc4CC[C@H]3[C@@H]1CC[C@@]2(O)/C=C/c1cccnc1 | 0.25 | inactive |  |
| 1.5 | C[C@]12CC[C@@H]3c4ccc(O)cc4CC[C@H]3[C@@H]1CC[C@@]2(O)/C=C/c1ccccn1 | 0.1 | inactive |  |
| 10.3 | C[C@]12CC[C@@H]3c4ccc(O)cc4CC[C@H]3[C@@H]1CC[C@@]2(O)/C=C/c1ccccc1 | 9.5 | inactive |  |
| 2.5 | C[C@]12CC[C@@H]3c4ccc(O)cc4CC[C@H]3[C@@H]1CC[C@@]2(O)/C=C/c1ccncc1 | 0.1 | inactive |  |

The remaining lines, values behind:

| Structure (SMILES) | RBA [2] | RSA [1] [%] | inhibition (Ishikawa) | EC50 [3] [nM] |
| --- | --- | --- | --- | --- |
| C[C@]12CC[C@@H]3c4ccc(O)cc4CC[C@H]3[C@@H]1CC[C@@]2(O)/C=C/c1cncnc1 | 0.8 | 0.4 | inactive |  |
| C[C@]12CC[C@@H]3c4ccc(O)cc4CC[C@H]3[C@@H]1CC[C@@H]2O [ESTRADIOL] |  |  |  | 0.9 |
| C[C@]12CC[C@@H]3c4ccc(O)cc4CC[C@H]3[C@@H]1CC[C@@]2(O)/C=C/c1cccs1 | 2.7 | 2.5 | inactive |  |
| C[C@]12CC[C@@H]3c4ccc(O)cc4CC[C@H]3[C@@H]1CC[C@@]2(O)/C=C/c1ccsc1 | 2.9 | 2.5 | inactive |  |
